Measurements published in the supplement of paper PMC10307832.

Experiments:
Test in all cases: relative viability (nuclei count vs DMSO), 5 days (fraction); higher = more cells survive
[1] = compound: CC1=CC(=CC=C1)NC2=NC(=CS2)C3=CC=NC=C3
How it was run: (§1)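 Hoechst staining, done together with fixation and permeabilisation, marked nuclei for 4× imaging and MetaXpress counting. This followed 5 days without medium change after lung cancer cell lines, kept overnight at 37 °C in 1536-well plates, were pinned with five library-drug doses (not always all listed) spaced by √10 on vehicle-anchored plates. Viability is the ratio of treated-well to vehicle-well nuclei, expressed as a median across plates. Plates passed only at control CV below 25% with at least one doubling.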

[2] = compound: Cc1ccc(NC(=O)c2ccc(CN3CCN(C)CC3)cc2)cc1Nc1nc(-c2cccnc2)cs1 [Masitinib]
How it was run: as §1

[3] = compound: Cc1ccc(NC(=O)c2ccc(CN3CCN(C)CC3)cc2)cc1Nc1nc(-c2cccnc2)cs1 [Masitinib] + CC1(C)CCC(c2ccc(Cl)cc2)=C(CN2CCN(c3ccc(C(=O)NS(=O)(=O)c4ccc(N[C@H](CCN5CCOCC5)CSc5ccccc5)c(S(=O)(=O)C(F)(F)F)c4)cc3)CC2)C1 [Navitoclax] (partner 0.5 µM)
How it was run: (§2)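 One day after seeding in 1536-well plates, lung cancer cell lines were dosed by pin tool. Dosing was either single-drug or a fixed anchor-drug dose plus five library-drug doses (not always all listed) in √10 steps. After 5 days, nuclei were stained in one fix-and-stain step and counted on 4× images, and relative viability is the nuclei count of treated wells over that of vehicle wells, given as the median of duplicate plates.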

[4] = compound: CC1=CC(=CC=C1)NC2=NC(=CS2)C3=CC=NC=C3 + CC(=O)Nc1cccc(-n2c(=O)n(C3CC3)c(=O)c3c(Nc4ccc(I)cc4F)n(C)c(=O)c(C)c32)c1 [Trametinib] (partner 0.02 µM)
How it was run: as §2

Cell Line	relative viability ([1]; 0.08 µM)	relative viability ([1]; 0.253 µM)	relative viability ([1]; 0.8 µM)	relative viability ([1]; 2.53 µM)	relative viability ([1]; 8 µM)	relative viability ([2]; 0.01 µM)	relative viability ([2]; 0.03162 µM)	relative viability ([2]; 0.1 µM)	relative viability ([2]; 0.3162 µM)	relative viability ([2]; 1 µM)	relative viability ([3]; first compound 0.01 µM)	relative viability ([3]; first compound 0.03162 µM)	relative viability ([3]; first compound 0.1 µM)	relative viability ([3]; first compound 0.3162 µM)	relative viability ([3]; first compound 1 µM)	relative viability ([4]; first compound 0.08 µM)	relative viability ([4]; first compound 0.253 µM)	relative viability ([4]; first compound 0.8 µM)	relative viability ([4]; first compound 2.53 µM)	relative viability ([4]; first compound 8 µM)
NCI-H1666	0.866	0.83	0.818	0.705	0.688	0.779	0.944	0.939	0.846	0.961	0.933	0.778	0.915	0.782	0.88	0.578	0.728	0.684	0.523	0.6
NCI-H1792	0.746	0.698	0.793	0.653	0.753	0.76	0.76	1.04	0.814	0.735	0.563	0.239	0.643	0.65	0.673	0.401	0.397	0.379	0.317	0.429
NCI-H727	0.698	0.737	0.808	0.791	0.924	0.947	0.948	1.08	0.945	0.92	0.424	0.431	0.385	0.347	0.434	0.422		0.439		0.405
HARA	0.741	0.975	0.815	0.685	0.735	0.844	0.874	0.772	0.742	0.909	1.16	1.06	1.2	1.2	1.19	0.561	0.742	0.734	0.447	0.629
NCI-H647	0.816	0.87	0.797	0.869	0.76	0.926	0.959	1.07	0.983	0.873	1.14	1.1	1.08	1.23	1.09	0.408	0.379	0.387	0.424	0.279
NCI-H1650	0.715	0.841	0.962	0.687	0.434	0.798	0.979	0.871	0.885	0.89	1.25	0.981	1.15	1.13	1.14	0.52	0.319	0.555	0.429	0.333
NCI-H2347	0.948	0.864	0.749	0.982	0.964	0.88	0.911	1	1.02	0.966	0.709	0.764	0.79	0.861	0.764	0.289	0.309	0.256	0.29	0.265
LCLC-97TM1	0.763	0.818	0.96	0.927	0.974	0.803	1.03	0.869	1.02	0.928	0.35	0.42	0.0511	0.639	0.355	0.185	0.214	0.157	0.178	0.185
